In data set [1] the test system is KYSE-520 cell line. Nature of the data set: Antiproliferative activity against human KYSE520 cells assessed as reduction in cell viability by WST-8 assay. (In general: Formazan colour is commonly taken as a measure of viable cells.)
Data set [2] can be described thus: Oral bioavailability in Sprague-Dawley rat at 10 mg/kg by LC-MS analysis. The data set is classed as ADME, organism-based. The settings on record: in vivo.
Data set [3] addresses T1, Tyrosine-protein phosphatase non-receptor type 11 (Homo sapiens, UniProt Q06124).
T1 sequence (Q06124 whole entry): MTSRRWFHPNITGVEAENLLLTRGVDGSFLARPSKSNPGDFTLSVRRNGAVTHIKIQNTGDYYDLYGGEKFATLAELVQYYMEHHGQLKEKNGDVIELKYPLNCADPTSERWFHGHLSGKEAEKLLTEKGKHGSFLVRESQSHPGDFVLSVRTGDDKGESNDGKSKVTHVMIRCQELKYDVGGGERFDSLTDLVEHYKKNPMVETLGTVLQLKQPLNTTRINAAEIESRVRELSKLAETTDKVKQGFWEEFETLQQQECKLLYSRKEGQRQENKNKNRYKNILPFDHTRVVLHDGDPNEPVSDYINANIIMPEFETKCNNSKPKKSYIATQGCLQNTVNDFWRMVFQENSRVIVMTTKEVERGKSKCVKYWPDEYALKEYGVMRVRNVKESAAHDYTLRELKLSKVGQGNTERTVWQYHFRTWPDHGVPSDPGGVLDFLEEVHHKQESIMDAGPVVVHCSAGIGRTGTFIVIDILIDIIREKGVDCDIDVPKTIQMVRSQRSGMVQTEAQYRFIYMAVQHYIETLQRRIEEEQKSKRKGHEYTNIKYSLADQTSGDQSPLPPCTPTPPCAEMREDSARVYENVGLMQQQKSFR
Description: Inhibition of human SHP2.

Data set [4] is described as follows: Oral bioavailability in human. Particulars: in vivo. It is filed as ADME, organism-based.

As usually defined, the IC50 is the concentration needed to halve the response being measured. In general, bioavailability refers to the share of a dose that reaches the circulation, judged against a reference dose that is usually intravenous. Read a high bioavailability as good availability. `CC1(N)CCN(c2cnc3c(Sc4ccncc4Cl)n[nH]c3n2)CC1`: the IC50 in data set [1] was determined as 5.73 µM. The compound also showed a bioavailability in data set [2] of 42.5%.
`C[C@H]1OCC2(CCN(c3cnc(Sc4ccnc(NC(=O)CCCCCCNC(=O)c5cccnc5)c4Cl)c(N)n3)CC2)[C@H]1N` came in with an IC50 in data set [3] of less than 0.01 µM.
For the compound `CC1(N)CCN(c2cnc(-c3cccc(Cl)c3Cl)c(N)n2)CC1`, the bioavailability in data set [4] was determined as 46%.

For the origin of these results see ChEMBL document CHEMBL6083181, “Advances in SHP2 tunnel allosteric inhibitors and bifunctional molecules” (Eur J Med Chem, 2024).
